The values below come from US8314255B2, “Use of phthalimide and/or sulphonamide derivatives in the treatment of diseases which require reducing the TNF- α levels and an exogenous source of nitric oxide, phthalimide derivatives, sulphonamide derivatives, and a method for obtaining a sulphonamide derivative” (priority 2007, dated 2012).

Series [1] has as its system Salmonella typhimurium TA100. In words: AMES test, mutagenic evaluation in Salmonella typhimurium TA100 strain with/without metabolic activation (S9). The format is cell-based. As for the experimental part:
(§1) The procedure was firstly developed by (MARON, D. M. and AMES, B. N. Mut. Res. v. 113, pp. 173-215, 1983)
(§2) For this assay, Salmonella typhimurium TA100 and TA102 strains from the mutagenicity laboratory of the “Faculdade de Ciências Farmacêuticas—UNESP Araraquara” were used. Such strains have the following characteristics: (AMES, 1983)
(§3) The positive controls are mutagenic compounds specific for each strain and test condition, with 25 μL/plate of sodium azide (1.25 μg/plate) and 100 μL of mitomycin (0.5 μg/plate) being the controls for TA100 and TA102, respectively, in the absence of metabolic activation. For assays with metabolic activation, the positive control for TA100 is 50 μL 2-antramine (1.25 μg/plate) and for TA102 it is 50 μL 2-aminofluorene (1.25 μg/plate).
(§4) The preincubation method was used.
(§5) In laminar flow, Salmonella typhimurium (TA100 and TA 102) strains were inoculated individually with a platinum loop, in the respective nutrient broths and maintained at 37° C., under constant stirring (160 rpm) during 14 hours, in order to achieve a density of 1 to 2×10^9 bacteria/mL.
(§6) Different concentrations of the compounds were added into 100 μL of 0.2M phosphate buffer pH 7.4 (or 500 μL of the mixture S9 in metabolic activation assays) and incubated for 20-30 minutes at 37° C. Solutions containing the compounds had DMSO as the solvent. Thereafter, 2 mL of top agar supplemented with traces of histidine and biotin was added, homogenized and plated in glycosylated minimum medium. After solidification of the top agar, the plates were incubated for 48 hours at a 37° C. Then, the counting of the number of revertant colonies per plate was performed. All tested concentrations, positive and negative controls were run in triplicate.
(§7) After 48 hours, the revertant colonies were counted manually, and the protoCOL Colony Counter Version 3.15.630 (1998-2001) SYNBIOSIS LTD system was used for the positive control.
(§8) The final data obtained from the assay was analyzed using the statistical software Salanal (Salmonella Assay Analysis) version 1.0 from the Research Triangle Institute, RTP, North Carolina, USA. Such software allows the dose-response effect to be evaluated by means of analysis of variance (ANOVA-test F) computations between the measurement of the number of revertants at the different tested concentrations (doses) and the negative control, followed by a linear regression. The software model chosen for analyzing the data was Bernstein's (BERNSTEIN, L. et al. Mutat. Res. v. 97, p. 267-281, 1982). The slope of the straight line from the linear portion of the dose-response curve is also provided by this software and corresponds to the number of revertants induced per measurement unit of the analyzed sample.
(§9) From the results, the mutagenicity ratio (MR) was computed for each analyzed dose from each compound. MR is given by the following equation:
(§10) MR=average number of revertants per test plate (spontaneous+induced revertants) […] average number of revertants per plate of the negative control (spontaneous revertants)
(§11) The spontaneous growing means that the number of revertants which developed on the plate, regardless of being induced or not, wherein values higher or equal to 2 are considered as a positive response (VALENT, G. V. et al. Env. Toxicol. Water Quality. v. 8, p. 371-381, 1993).
(§12) The mutagenicity test with metabolic activation system was performed with a microsomal fraction S9 (S9 mix) prepared from a liver homogenizate from Sprague Dawley rats, previously treated with Aroclor 1254, acquired in the freeze-dried form.
(§13) The procedure for this assay is the same, however, instead of the buffer, 500 μL of the S9 mixture should be added.
(§14) The S9 mixture has a viability of 4 hours from preparation when put on ice. The plates are then incubated for 48 hours at 37° C. After the required time has elapsed, the counting of the revertant colonies was carried out. All tested concentrations, positive and negative controls were run in triplicate.

For series [2], the system named is Salmonella typhimurium TA102. In words: AMES test, mutagenic evaluation in Salmonella typhimurium TA102 strain with/without metabolic activation (S9). Type of series: cell-based. As for the experimental part:
as §1, §2, §3, §4, §5, §6, §7, §8, §9, §10, §11, §12, §13, §14

The test system of series [3] is leukocyte infiltration, peritonitis induced by thioglycolate. In words: Peritonitis assay induced by 3% thioglycolate. Type of series: in vivo. The settings on record: 300 μMol/Kg orally, mouse, 3% thioglycolate i.p., 4 h. As for the experimental part: In a second assay, the number of total leukocytes (10^6/mL) was evaluated in order to evaluate the ability to inhibit their infiltration in the inflammatory process.
The mice were treated with the substances being analyzed or carrier and after 1 h of oral administration, they were simultaneously subjected to the peritonitis assay, by administering intraperitoneally 1 ml of a 3% thioglycolate solution. 4 h after the administration of thioglycolate, the peritoneal cavity was washed with 3 ml of a HANKS solution (Balanced salt solution, free of Ca^2+ and Mg^2+). Next, the peritoneal wash was analyzed and the total counting of white blood cells was made in a Newbauer's chamber under an optical microscope with a 40× objective.

The test system of series [4] is gamma-globin mRNA. The note with it: 48 hours, data in the literature; cited from earlier work.

As for `O=C1c2ccccc2C(=O)N1c1cccc(CO[N+](=O)[O-])c1` [Compound IC, 3-(1,3-dioxo-1,3-dihydro-2H-isoindol-2-yl)benzyl nitrate], the “mutagenicity ratio (MR)” value in series [1] (TA 100, +S9, 0.224 μmol/plate) stood at 1.27; in series [1] (TA 100, +S9, 0.488 μmol/plate), 1.18; in series [1] (TA 100, +S9, 0.896 μmol/plate), 1.12; in series [1] (TA 100, +S9, 1.8 μmol/plate), 1.26; in series [1] (TA 100, +S9, 3.58 μmol/plate), 1.22; in series [1] (TA 100, −S9, 0.224 μmol/plate) it was 1.21. Besides, the “mutagenicity ratio (MR)” value in series [1] (TA 100, −S9, 0.488 μmol/plate) is 1.25; in series [1] (TA 100, −S9, 0.896 μmol/plate) it was 1.48; in series [1] (TA 100, −S9, 1.8 μmol/plate), 1.34; in series [1] (TA 100, −S9, 3.58 μmol/plate) it was 1.8; in series [2] (TA 102, +S9, 0.224 μmol/plate), 0.73; in series [2] (TA 102, +S9, 0.488 μmol/plate), 1.01. Besides, the “mutagenicity ratio (MR)” value in series [2] (TA 102, +S9, 0.896 μmol/plate) came to 1.09; in series [2] (TA 102, +S9, 1.8 μmol/plate), 1.07; in series [2] (TA 102, +S9, 3.58 μmol/plate), 1.15; in series [2] (TA 102, −S9, 0.224 μmol/plate) it was 1.10; in series [2] (TA 102, −S9, 0.488 μmol/plate), 1.12; in series [2] (TA 102, −S9, 0.896 μmol/plate) it was 1.19. In addition, the “mutagenicity ratio (MR)” value worked out at 1.55 in series [2] (TA 102, −S9, 1.8 μmol/plate) and 1.52 in series [2] (TA 102, −S9, 3.58 μmol/plate). Also, the “number of revertants per plate” value is listed as 165 ± 13.2 revertants/plate in series [1] (TA 100, +S9, 0.224 μmol/plate); 153 ± 13.1 revertants/plate in series [1] (TA 100, +S9, 0.488 μmol/plate); 146 ± 5 revertants/plate in series [1] (TA 100, +S9, 0.896 μmol/plate); 163 ± 22.5 revertants/plate in series [1] (TA 100, +S9, 1.8 μmol/plate); 158.3 ± 9.3 revertants/plate in series [1] (TA 100, +S9, 3.58 μmol/plate); 216.7 ± 10.2 revertants/plate in series [1] (TA 100, −S9, 0.224 μmol/plate). The “number of revertants per plate” value in series [1] (TA 100, −S9, 0.488 μmol/plate) came out at 224.5 ± 24.6 revertants/plate; in series [1] (TA 100, −S9, 0.896 μmol/plate), 266.3 ± 8.4 revertants/plate; in series [1] (TA 100, −S9, 1.8 μmol/plate), 239.7 ± 11.3 revertants/plate; in series [1] (TA 100, −S9, 3.58 μmol/plate) it was 323.7 ± 10.2 revertants/plate; in series [2] (TA 102, +S9, 0.224 μmol/plate), 272 ± 26 revertants/plate; in series [2] (TA 102, +S9, 0.488 μmol/plate) it was 378 ± 6.1 revertants/plate. Also, the “number of revertants per plate” value worked out at 405 ± 11 revertants/plate in series [2] (TA 102, +S9, 0.896 μmol/plate); 399.3 ± 40 revertants/plate in series [2] (TA 102, +S9, 1.8 μmol/plate); 431 ± 17.9 revertants/plate in series [2] (TA 102, +S9, 3.58 μmol/plate); 281 ± 25 revertants/plate in series [2] (TA 102, −S9, 0.224 μmol/plate); 286 ± 4.2 revertants/plate in series [2] (TA 102, −S9, 0.488 μmol/plate); 303 ± 9.2 revertants/plate in series [2] (TA 102, −S9, 0.896 μmol/plate). For the same compound, the “number of revertants per plate” value in series [2] (TA 102, −S9, 1.8 μmol/plate) was 395.7 ± 9 revertants/plate; in series [2] (TA 102, −S9, 3.58 μmol/plate) it was 387 ± 9.7 revertants/plate. Besides, the “mutagenicity (AMES test, overall)” value in series [1] (TA100 and TA102, with and without S9, at the concentrations used) was “did not show mutagenicity”. Also, in series [3], the “Cell Number avg (×106), total leukocytes” value is 3.2 ×106. The “Inhibition % (leukocyte infiltrate)” value in series [3] was found to be 42.85%.

Turning to `NC(=O)NO` [HU, Hydroxyurea], in series [4], the “concentration producing comparable activity on gamma-globin expression” value is 10 µM.
